Reference: US20240368133A1, “Compounds for the Treatment of Pain, in Particular, Neuropathic Pain, and/or Other Diseases or Disorders that are Associated with AT2R and/or AT2R Mediated Signaling” (Confo Therapeutics N.V., priority 2021, published 2024)
Values after ≈ are worked out from the molar mass of the structure shown. Where two headings read alike, the source gives them in different places.

What was measured:
[1] = Liver microsomal stability, human; assay type: in vitro ADME; conditions: pH 7.4, liver microsomes
Method: Microsomal incubations were carried out in 96-well plates in 5 aliquots of 40 μL each (one for each time point). Liver microsomal incubation medium contained PBS (100 mM, pH 7.4), MgCl2 (3.3 mM), NADPH (3 mM), glucose-6-phosphate (5.3 mM), glucose-6-phosphate dehydrogenase (0.67 units/ml) with 0.42 mg of liver microsomal protein per ml. Control incubations were performed replacing the NADPH-cofactor system with PBS. Test compound (2 μM, final solvent concentration 1.6%) was incubated with microsomes at 37° C., shaking at 100 rpm. Incubations were performed in duplicates. Five time points over 40 minutes have been analyzed. The reactions were stopped by adding 12 volumes of 90% acetonitrile-water to incubation aliquots, followed by protein sedimentation by centrifuging at 5500 rpm for 3 minutes. […]. Supernatants were analyzed using the HPLC system coupled with tandem mass spectrometer (API3000 PE Sciex). Acquisition and analysis of the data were performed using Analyst 1.5.2 software (PE Sciex). The elimination constant (kel), half-life (t½) and intrinsic clearance (Clint) were determined in plot of […] versus time, using linear regression analysis:
A 10 mM stock solution of compound in DMSO is diluted three-fold in DMSO. This pre-diluted compound solution is then further diluted to 2 μM in a 50 mM phosphate buffer (PBS, pH 7.4) and pre-warmed at 37° C. This compound dilution is mixed F2 with microsomal/cofactor mix at 37° C. under shaking at 300 rpm. Final reaction conditions are: 100 μL incubation volume, 1 μM of test compound (in duplicate), <0.1% DMSO, 0.5 mg/mL microsomes, 0.6 U/mL Glucose-6-phosphate-dehydrogenase (G6PDH, Roche, 10127671001), 3.3 mM MgCl2 (Sigma, M2670), 3.3 mM glucose-6-phosphate (Sigma, G-7879) and 1.3 mM NADP+ (Sigma, N-0505).
After 60 min of incubation at 300 rpm and 37° C., the reaction was stopped with 3 volumes of STOP solution (acetonitrile/MeOH 2/1 with diclofenac as internal standard). For the time point zero, 3 volumes of STOP solution were added to the compound dilution before the microsome mix was added. Six time points over 60 minutes have been analyzed. The samples of all time points were centrifuged, filtered and the supernatant analyzed by LCMS/MS (systems API4000).
The instrument responses (peak areas/IS peak area) were referenced to the zero time-point samples (considered as 100%) in order to determine the percentage of compound remaining.
Testosterone (1 μM) and Propranolol and Caffeine (1 μM) were used as reference compounds, being unstable and stable compounds respectively. If the microsomal stability values for these controls are not in the range determined by the historical data, the assay is not validated. The solubility of the compound in the final test concentration in 50 mM buffer pH 7.4 is checked by microscope to indicate whether precipitation is observed or not. If a precipitate is observed, no data of microsomal stability is generated.

Kinetic solubility = assay type: physicochemical; conditions: kinetic from dmso stock
Method: Starting from a 20 mM stock solution of test compound in 100% DMSO, dilutions were prepared to a theoretical concentration of 400 μM in duplicates in phosphate-buffered saline pH 7.4 (PBS) (138 mM NaCl, 2.7 mM KCl, 10 mM K-phosphate) and 100 mM citrate buffer pH 3.0 with 2% final DMSO.
The experimental compound dilutions in PBS and citrate buffer were further allowed to equilibrate at 25° C. on a thermostatic orbital shaker for two hours and then centrifuged at 14000 rpm, 5 min and filtered through HTS filter plates using a vacuum manifold. The filtrates of test compounds were diluted 2-fold with acetonitrile with 2% DMSO before measuring. In parallel, compound dilutions in 50% acetonitrile/buffer were prepared to the theoretical concentrations of 0 μM (blank), 100 μM, 200 μM and 400 μM with 2% final DMSO to generate calibration curves.
Ondansetron (Sigma Aldrich USA, cat #03639) was used as a reference to control proper assay performance. 200 μl of each sample were transferred to a 96-well plate and solubility was measured in a 200-550 nm range (in steps of 5 nm). The measurements were performed using a Spectra Max Plus reader in UV-Vis mode. Acquisition and analysis of the data were performed using SoftMax Pro v.5.4 (Molecular Devices) and Excel 2010 data analysis software. Proper absorbance wavelengths for calculations were selected for each compound manually based on absorbance maximums (absolute absorbance unit values for the minimum and maximum concentration points within 0-3 OD range). Each of the final datasets was additionally visually evaluated by the operator and goodness of fit (R2) is calculated for each calibration curve.

CYP2C9 = CYP2C9 (Homo sapiens (Human), UniProt P11712); assay: CYP inhibition, CYP2C9; assay type: in vitro ADME; conditions: test compound at 10 μM, read-out: % Inhibition (PIN) 2C9
Method: The aim of this assay is to determine the inhibitory potential of a test compound. A major concern for drug-drug-interaction is cytochrome P450 inhibition. Reversible CYP inhibition was determined in human liver microsomes using specific probe substrates for human cytochrome P450 isoenzymes CYP1A2, 2C9, 2C19, 2D6 and 3A4.
The potential for CYP450 inhibition was assessed by performing in vitro inhibition studies using fluorogenic CYP450 substrates with the corresponding CYP450 enzymes and NADPH regeneration system (Vivid CYP450 Screening Kits) with some minor changes to the manufacturer's protocols. The fluorescent signal produced from reaction is directly proportional to the cytochrome P450 activity. In the cases when tested compounds interfere with the CYP450 enzyme-substrate reaction, the fluorescent signal decreases. […] After 10 minutes pre-incubation, the enzymatic reaction was initiated by the addition of a mix of NADPH and the appropriate CYP450 substrates. The plate was incubated for the desired reaction time (25 min for CYP1A2, CYP2C9, CYP2D6, and CYP3A4, 60 min for CYP2C19) after which Stop Reagent was added and fluorescence measured using SpectraMax Paradigm Multi-Mode Microplate Reader. All test points were performed in quadruplicates at concentration 10 μM (1% DMSO).
A 10 mM stock solution of test compound is prepared in methanol. This stock is further serially diluted 1:3 in methanol and then added to mixture containing 50 mM potassium phosphate buffer pH7.4, human liver microsomes (BD Gentest) and probe substrate. […]
After incubation at 37° C., the reaction (aliquot of 50 μL) is terminated with 150 μL CH3CN:MeOH (2:1) solution with internal standard (warfarin for 2C9, diclofenac for all other tested isoforms). Samples are centrifuged and the supernatant fractions analyzed by LC-MS/MS.
The instrument responses (ratio of test compound and internal standard peak areas) are referenced to those for solvent controls (assumed as 100%) in order to determine the percentage reduction in probe metabolism. Percent of control activity vs. concentration plots are generated and fitted using GraphPad Prism software to generate IC50.

[2] = aqueous buffer, kinetic solubility, phosphate-buffered saline pH 7.4, 2% DMSO, 25° C., two hours, read-out: PBS solubility, pH 7.4
[3] = citrate buffer, 25 °C, pH 3, aqueous buffer, read-out: Citrate buffer solubility, pH 3.0

Chain of CYP2C9 (P11712 whole entry): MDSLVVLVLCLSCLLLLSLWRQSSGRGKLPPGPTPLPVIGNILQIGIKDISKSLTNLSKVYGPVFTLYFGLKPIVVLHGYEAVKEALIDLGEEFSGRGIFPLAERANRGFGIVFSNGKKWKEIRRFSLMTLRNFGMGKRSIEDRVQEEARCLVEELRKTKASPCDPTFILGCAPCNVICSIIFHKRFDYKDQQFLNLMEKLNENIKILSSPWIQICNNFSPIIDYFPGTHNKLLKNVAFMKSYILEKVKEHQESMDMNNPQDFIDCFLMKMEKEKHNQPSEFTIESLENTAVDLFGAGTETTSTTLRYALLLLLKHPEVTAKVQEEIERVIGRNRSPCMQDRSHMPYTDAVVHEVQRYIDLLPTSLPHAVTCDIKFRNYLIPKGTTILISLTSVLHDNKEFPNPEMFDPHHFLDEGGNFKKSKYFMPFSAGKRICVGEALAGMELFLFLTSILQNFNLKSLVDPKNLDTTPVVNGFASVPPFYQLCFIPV

SMILES	microsomal CLint [1] [µL/min/mg]	solubility at 2 h (Kinetic solubility; [2]) [µM]	solubility at 2 h (Kinetic solubility; [3]) [µM]	inhibition at 10 µM (CYP2C9) [%]
CCCCNC(=O)NS(=O)(=O)c1ccc(C(F)(F)F)cc1N1CCN(Cc2nc3ccccc3n2C)CC1 [Compound A-10, 1-butyl-3-[2-[4-[(1-methylbenzimidazol-2-yl)methyl]piperazin-1-yl]-4-(trifluoromethyl)phenyl]sulfonyl-urea]	99	≥ 400	≥ 400	46.1
CC(C)Cc1ccc(-c2nn[nH]n2)c(N2CCN(Cc3nc4ccccc4n3C)CC2)c1 [Compound A-20, 2-[[4-[5-isobutyl-2-(2H-tetrazol-5-yl)-phenyl]piperazin-1-yl]methyl]-1-meth-yl-benzimidazole]	24	≥ 400	≥ 400	
CC(C)Cc1ccc(-c2nn[nH]n2)c(N2CCN(Cc3nc4ccccc4c(=O)[nH]3)CC2)c1 [Compound A-31, 2-[[4-[5-isobutyl-2-(2H-tetrazol-5-yl)phenyl]piperazin-1-yl]methyl]-3H-quinazolin-4-one]	8	≥ 400	40 (≈ 17.8 µg/mL)	73
Cc1cc(CN2CCN(c3cc(CC(C)C)ccc3-c3nn[nH]n3)CC2)no1 [Compound A-82, 3-[[4-[5-isobutyl-2-(2H-tetrazol-5-yl)phenyl]piperazin-1-yl]methyl]-5-methyl-isoxazole]	15			32.1
CC(C)Cc1ccc(-c2nn[nH]n2)c(N2CCN(Cc3nccn3C)CC2)c1 [Compound A-83, 1-[5-isobutyl-2-(2H-tetrazol-5-yl)-phenyl]-4-[(1-meth-ylimidazol-2-yl)-methyl]piperazine]	6			3.37
CC(C)Cc1ccc(-c2nn[nH]n2)c(N2CCN(Cc3ccnn3C)CC2)c1 [Compound A-84, 1-[5-isobutyl-2-(2H-tetrazol-5-yl)phenyl]-4-[(1-methylpyrazol-5-yl)methyl]piperazine]	40			56.2
CC(C)Cc1ccc(-c2nn[nH]n2)c(N2CCN(Cc3cccnn3)CC2)c1 [Compound A-90, 3-[[4-[5-isobutyl-2-(2H-tetrazol-5-yl)phenyl]piperazin-1-yl]methyl]pyridazine]	7	≥ 400	≥ 400	28.4
CCC1CN(Cc2cccnn2)CCN1c1cc(CC(C)C)cc(F)c1-c1nn[nH]n1 (centres unmarked) [Compound A-181, 3-[[3-ethyl-4-[3-fluoro-5-isobutyl-2-(2H-tetrazol-5-yl)phenyl]piperazin-1-yl]methyl]pyridazine]	12	≥ 400	388 (≈ 165 µg/mL)	
CC(C)Cc1cc(F)c(-c2nn[nH]n2)c(N2CC(C)N(Cc3cccnn3)CC2C)c1 (centres unmarked) [Compound A-183, 3-[[4-[3-fluoro-5-isobutyl-2-(2H-tetrazol-5-yl)phen-yl]-2,5-dimethyl-piperazin-1-yl]-methyl]pyridazine]	7	383 (≈ 163 µg/mL)	377 (≈ 160 µg/mL)	
CC(C)Cc1cc(F)c(-c2nn[nH]n2)c(N2CCN(Cc3ccccn3)[C@@H](C)C2)c1 [Compound A-217, (2S)-4-[3-fluoro-5-isobutyl-2-(2H-tetrazol-5-yl)phenyl]-2-methyl-1-(2-pyridylmethyl)piperazine]	< 6.6			51
Cc1cnc(CN2CCN(c3cc(CC(C)C)cc(F)c3-c3nn[nH]n3)C[C@@H]2C)s1 [Compound A-223, 2-[[(2S)-4-[3-fluoro-5-isobutyl-2-(2H-tetrazol-5-yl)phenyl]-2-methyl-piperazin-1-yl]methyl]-5-methyl-thiazole]	18.2			43

The remaining lines, values ahead:

microsomal CLint [1] [µL/min/mg]	solubility at 2 h (Kinetic solubility; [2]) [µM]	solubility at 2 h (Kinetic solubility; [3]) [µM]	inhibition at 10 µM (CYP2C9) [%]	SMILES
37	318 (≈ 176 µg/mL)	≥ 400		CCCCOC(=O)NS(=O)(=O)c1ccc(C(F)(F)F)cc1N1CCN(Cc2nc3ccccc3n2C)CC1 [Compound A-09, butyl N-[2-[4-[(1-methylbenzimidazol-2-yl)methyl]piperazin-1-yl]-4-(trifluoromethyl)phenyl]sulfonylcarbamate]
259	54 (≈ 26.9 µg/mL)	≥ 400		CCCCNC(=O)NS(=O)(=O)c1ccc(C)cc1N1CCN(Cc2nc3ccccc3n2C)CC1 [Compound A-12, 1-butyl-3-[4-methyl-2-[4-[(1-methylbenzimidazol-2-yl)methyl]piperazin-1-yl]phenyl]sulfonyl-urea]
8	≥ 400	≥ 400	36.6	CC(C)Oc1ccc(-c2nn[nH]n2)c(N2CCN(Cc3nc4ccccc4n3C)CC2)c1 [Compound A-24, 2-[[4-[5-isopropoxy-2-(2H-tetrazol-5-yl)phenyl]piperazin-1-yl]methyl]-1-methyl-benzimidazole]
10	394 (≈ 176 µg/mL)	399 (≈ 178 µg/mL)	62.4	CC(C)Oc1ccc(-c2nn[nH]n2)c(N2CCN(Cc3nc4ccccc4c(=O)[nH]3)CC2)c1 [Compound A-32]
12	≥ 400	4 (≈ 1.74 µg/mL)		CC(C)Oc1ccc(-c2nn[nH]n2)c(N2CCN(Cc3nc4ccccc4s3)CC2)c1 [Compound A-51, 2-[[4-[5-isoprop-oxy-2-(2H-tetrazol-5-yl)phenyl]piper-azin-1-yl]methyl]-1,3-benzothiazole]
6			15.8	CC(C)Cc1ccc(-c2nn[nH]n2)c(N2CCN(Cc3ncccn3)CC2)c1 [Compound A-88]
